As a reminder, the pIC50 is −log10 of the IC50, conventionally taken in molar units.

Data set [1] deals with SW480. Kind of data set: Antiproliferative activity against human SW480 cells assessed as inhibition of cell proliferation at 100 uM incubated for 72 hrs by CCK-8 assay. Type of data set: functional, cell-based.
Data set [2] relates to HCT-116. Put plainly: Antiproliferative activity against human HCT-116 cells assessed as inhibition of cell proliferation at 100 uM incubated for 72 hrs by CCK-8 assay. Type of data set: functional, cell-based. (In general: Tetrazolium assays rely on reduction of a dye to a coloured formazan, in cell work by metabolically active cells.)
Data set [3] concerns CCD-841CoN. Kind of data set: Cytotoxicity against human CCD841 cells assessed as inhibition of cell proliferation at 100 uM incubated for 72 hrs by CCK-8 assay. Type of data set: toxicity, cell-based.
The subject of data set [4] is SW480. Put plainly: Antiproliferative activity against human SW480 cells assessed as cell growth inhibition measured after 72 hrs by Cell Counting Kit-8 assay. Type of data set: functional, cell-based. Particulars: SW480, 72 h.
The test system of data set [5] is HCT-116. Put plainly: Antiproliferative activity against human HCT-116 cells assessed as cell growth inhibition measured after 72 hrs by Cell Counting Kit-8 assay. Type of data set: functional, cell-based. Particulars: HCT-116, 72 h.
The test system of data set [6] is CCD-841CoN. Put plainly: Cytotoxicity against human CCD-841 cells assessed as cell growth inhibition measured after 72 hrs by Cell Counting Kit-8 assay. Type of data set: toxicity, cell-based.
Data set [7] has as its system SW480. Kind of data set: Inhibition of Wnt signalling in human SW480 cells assessed as reduction in survivin expression at 10 uM measured after 24 hrs by western blot analysis. Type of data set: cell-based. On the technique in general: Immunoblotting shows a protein as a band on a membrane.
Data set [8] relates to SW480. Put plainly: Inhibition of Wnt signalling in human SW480 cells assessed as reduction in TCF4 expression at 10 uM measured after 24 hrs by western blot analysis. Type of data set: cell-based.
The test system of data set [9] is SW480. Kind of data set: Inhibition of Wnt signalling in human SW480 cells assessed as reduction in phosphorylation of beta-catenin at ser552 residues at 10 uM measured after 24 hrs by western blot analysis. Type of data set: cell-based.
Data set [10] has as its system SW480. Kind of data set: Inhibition of Wnt2 signalling in human SW480 cells assessed as reduction in cyclin D1 expression at 10 uM measured after 24 hrs by western blot analysis. Type of data set: cell-based.
For a further data set, the system named is HT-29. Kind of data set: Antitumour activity against human HT-29 cells subcutaneously transplanted in nude mouse assessed as reduction in tumor volume at 2 mg, ip administered twice per day for 8 days. Type of data set: functional, organism-based. The conditions noted are these: time 8.0 day.
In data set [11] the test system is SW480. Kind of data set: Inhibition of Wnt signalling in human SW480 cells assessed as reduction in KLF5 expression at 10 uM measured after 24 hrs by western blot analysis. Type of data set: cell-based.
Data set [12] deals with SW480. Put plainly: Inhibition of Wnt signalling in human SW480 cells assessed as reduction in phosphorylation of beta-catenin at ser675 residue at 10 uM measured after 24 hrs by western blot analysis. Type of data set: cell-based.
The test system of data set [13] is SW480. Put plainly: Inhibition of USP3-KLF5 protein complex formation in human SW480 cells assessed as reduction in beta-catenin expression at 10 uM measured after 24 hrs by western blot analysis. Type of data set: cell-based.
For data set [14], the system named is CCD-841CoN. Put plainly: Inhibition of Wnt signalling in human CCD841 cells assessed as reduction in cyclin D1 expression at 10 uM measured after 24 hrs by western blot analysis. Type of data set: cell-based.
In data set [15] the test system is CCD-841CoN. Kind of data set: Inhibition of Wnt signalling in human CCD841 cells assessed as reduction in phosphorylation of beta-catenin at ser675 residue at 10 uM measured after 24 hrs by western blot analysis. Type of data set: cell-based.
A short description of data set [16]: Toxicity in nude mouse transplanted subcutaneously with human HT-29 cells assessed as abnormality in epithelial cell integrity at 2 mg, ip administered twice daily for 8 days by H and E staining based assay. Type of data set: organism-based. The conditions noted are these: in vivo, 192 h, time 8 day.
Data set [17] is described as follows: Toxicity in nude mouse transplanted subcutaneously with human HT-29 cells assessed as abnormality in villi formation at 2 mg, ip administered twice daily for 8 days by H and E staining based assay. Particulars: in vivo, 192 h, time 8 day. Type of data set: organism-based.
The next data set concerns HEK293T. Put plainly: Inhibition of USP3-KLF5 protein complex formation in HEK293T cells overexpressing Myc tag-USP3 and FLAG/HA-KLF5 proteins assessed as reduction in KLF5 expression at 20 uM measured after 4 hrs by western blot analysis. Type of data set: cell-based. Particulars: Homo sapiens.
The test system of data set [18] is SW480. Put plainly: Inhibition of Wnt signalling in human SW480 cells assessed as reduction in KLF5 mRNA expression at 10 uM measured after 24 hrs by RT-PCR analysis. Type of data set: cell-based.
Data set [19] concerns CCD-841CoN. Put plainly: Inhibition of Wnt signalling in human CCD841 cells assessed as reduction in KLF5 expression at 10 uM measured after 24 hrs by western blot analysis. Type of data set: cell-based.
Data set [20] deals with CCD-841CoN. Kind of data set: Inhibition of Wnt signalling in human CCD841 cells assessed as reduction in survivin expression at 10 uM measured after 24 hrs by western blot analysis. Type of data set: cell-based.
In data set [21] the test system is CCD-841CoN. Put plainly: Inhibition of Wnt signalling in human CCD841 cells assessed as reduction in TCF4 expression at 10 uM measured after 24 hrs by western blot analysis. Type of data set: cell-based.

pIC50: −log10 of the molar value. The source made the active and inactive calls. No cut-off for these calls is given here.

Turning to `O=C1[C@H](Cc2ccc(O)cc2)N2C(=O)CCN(C(=O)NCc3ccccc3)[C@H]2CN1Cc1cccc2ccccc12`, the result in the data set with SW480 [1] and with HCT-116 [2] was Active. Moreover, in the data set on CCD-841CoN [3], the Activity result was “Toxic”.
Consider `CC(C)[C@H](O)C(=O)O`, for which the outcome in the data set with SW480 [1] and in the data set on HCT-116 [2] was Active. Moreover, the Activity result in the data set on CCD-841CoN [3] is “Toxic”.
On to `CC[C@H](C)[C@H]1CN(Cc2ccccc2)C[C@@H]2N(C(=O)OCC(C)C)O[C@H](C(C)C)C(=O)N12`, for which the pIC50 in the data set on SW480 [4] and in the data set with HCT-116 [5] was 5.60 each time. Moreover, the Activity result (in the data set with CCD-841CoN [6]; in data set [16]; in data set [17]) was “Non-Toxic” each time. The result in the data set with SW480 [7], in the data set on SW480 [8], in the data set on SW480 [9], in the data set with SW480 [10], in the data set with HT-29 and with SW480 [11] was Active. In addition, the outcome in the data set with SW480 [12], in the data set on SW480 [13] and in the data set with HEK293T was Active. Besides, the outcome with CCD-841CoN [14] and with CCD-841CoN [15] was inactive.
For `CC[C@H](C)[C@H](NC(=O)OCC1c2ccccc2-c2ccccc21)C(=O)O`, the outcome in the data set on SW480 [1] and with HCT-116 [2] was Active. The Activity entry with CCD-841CoN [3] is given as “Toxic”.
For `CCOC(CN)OCC`, the outcome with SW480 [1] and in the data set with HCT-116 [2] was Active. Also, the Activity result with CCD-841CoN [3] is reported as “Toxic”.
As for `CC(C)[C@@H](ON1C(=O)c2ccccc2C1=O)C(=O)OCc1ccccc1`, the result in the data set with SW480 [1] and in the data set with HCT-116 [2] was Active. Besides, in the data set on CCD-841CoN [3], the Activity result is “Toxic”.
On to `CCCC[C@H]1CN(Cc2ccccc2)C[C@@H]2N(C(=O)OCC(C)C)O[C@H](C(C)C)C(=O)N12`, for which the pIC50 in the data set on SW480 [4] and in the data set with HCT-116 [5] was 5.29 throughout. Also, the Activity result in the data set on CCD-841CoN [6] is “Non-Toxic”. For the same compound, the outcome in the data set with SW480 [7], with SW480 [8], in the data set on SW480 [9] and in the data set with SW480 [11] was Active. Moreover, the outcome with SW480 [18], in the data set with CCD-841CoN [19], in the data set on CCD-841CoN [20] and in the data set on CCD-841CoN [21] was inactive.
Turning to `CCOC(CNCc1ccccc1)OCC`, the outcome in the data set on SW480 [1] and in the data set with HCT-116 [2] was Active. Further, the Activity result in the data set with CCD-841CoN [3] was “Toxic”.
For `CC(C)[C@@H](ON)C(=O)OCc1ccccc1`, the outcome in the data set with SW480 [1] and in the data set with HCT-116 [2] was Active. For the same compound, in the data set on CCD-841CoN [3], the Activity entry is given as “Toxic”.
As for `CCOC(CN(Cc1ccccc1)C(=O)[C@@H](NC(=O)OCC1c2ccccc2-c2ccccc21)[C@@H](C)CC)OCC`, the result in the data set with SW480 [1] and in the data set with HCT-116 [2] was Active. The Activity result in the data set with CCD-841CoN [3] is on record as “Toxic”.
As to `CC(C)COC(=O)N1O[C@H](C(C)C)C(=O)N2[C@@H](CC(C)C)CN(Cc3ccccc3)C[C@H]12`, the pIC50 in the data set on SW480 [4] and in the data set on HCT-116 [5] was 5.29 in each case. Also, the Activity entry in the data set with CCD-841CoN [6] is “Non-Toxic”. Further, the result in the data set with SW480 [7], in the data set on SW480 [8], in the data set with SW480 [9] and in the data set with SW480 [11] was Active. The result with SW480 [18], with CCD-841CoN [19], with CCD-841CoN [20] and with CCD-841CoN [21] was inactive.
As to `CC(C)[C@H](O)C(=O)OCc1ccccc1`, the outcome in the data set with SW480 [1] and with HCT-116 [2] was Active. Besides, the Activity result with CCD-841CoN [3] was “Toxic”.
Consider `O=Cc1ccccc1` [BENZALDEHYDE], for which the result with SW480 [1] and with HCT-116 [2] was Active. Also, the Activity entry in the data set on CCD-841CoN [3] is “Toxic”.
As for `O=C1c2ccccc2C(=O)N1O`, the outcome in the data set on SW480 [1] and in the data set with HCT-116 [2] was Active. For the same compound, the Activity entry with CCD-841CoN [3] is reported as “Toxic”.
Turning to `CCOC(CN(Cc1ccccc1)C(=O)[C@@H](N)[C@@H](C)CC)OCC`, the result in the data set with SW480 [1] and in the data set on HCT-116 [2] was Active. For the same compound, the Activity entry in the data set on CCD-841CoN [3] is recorded as “Toxic”.

(Values after ChEMBL document CHEMBL5046319, “Development of Low-Molecular-Weight Compounds Targeting the Cancer-Associated KLF5 Transcription Factor” (ACS Med Chem Lett, 2022).)
